Data as given in patent US20050282830A1, “Use of dipyridamole or mopidamole for treatment and prevention of MMP-9-dependent disorders” (Boehringer Ingelheim International GmbH, priority 2003, published 2005).

Tests used:
[1] = test system: matrix metalloproteinase-9 (MMP-9); assay: Inhibition of MMP-9 gene expression/synthesis in platelet-monocyte aggregates adherent to collagen type I; format: cell-based, Human; conditions: adhered to collagen type I for 18 hours, 9 independent experiments
Procedure: Inhibition of MMP-9 Gene Expression in Platelet-Monocyte Aggregates by the Dipyridamole Component of Aggrenox® (AGG)
Aggrenox® (AGG) is a fixed dosed combination of extended-release dipyridamole (DIP) and aspirin (ASA). AGG is recommended in the protection of secondary stroke and transient ischemic attacks. It also increases tissue perfusion in patients with stable angina or Raynaud's disease. It was determined if AGG blocked the synthesis of inflammatory genes produced by platelet-monocyte aggregates.
Human platelets and monocytes were pretreated with Dipyridamole (DIP) (5 μg/ml), ASA (625 ng/ml), or a DIP/ASA mixture (AGG); 5 μg/ml: 625 ng/ml, an 8:1 ratio of DIP/ASA). The cells were adhered to collagen type I. Synthesis of matrix metalloproteinase-9 (MMP-9) was determined. […] AGG and DIP reduced MMP-9 expression (53%, 61%, and a 17% reduction in MMP-9 synthesis compared to untreated cells for AGG, DIP, and ASA, respectively; results shown in FIG. 1). The inhibitory actions of AGG on gene expression are due to the DIP component of this |drug|.
FIG. 1: The Dipyridamole component of Aggrenox attenuates MMP-9 synthesis by monocytes (monos) adherent to platelets (pits) and collagen. […] The cells were subsequently adhered to Collagen Type 1 for 18 hours and MMP-9 expression was measured. […]

[2] = ESPS-2; compared with aspirin; cited from earlier work

| Structure (SMILES) | reduction in MMP-9 synthesis compared to untreated cells ([1]; human platelets and monocytes pretreated 15 minutes with 5 μg/ml) | reduction of stroke risk [2] | reduction in MMP-9 synthesis compared to untreated cells ([1]; human platelets and monocytes pretreated 15 minutes with 625 ng/ml) |
| --- | --- | --- | --- |
| OCCN(CCO)c1nc(N2CCCCC2)c2nc(N(CCO)CCO)nc(N3CCCCC3)c2n1 [DIP, 2,6-bis(diethanolamino)-4,8-dipiperidino-pyrimido[5,4-d]pyrimidine] | 61% | as effective as low-dose aspirin |  |
| CC(=O)Oc1ccccc1C(=O)O [ASA, acetylsalicalic acid] |  |  | 17% |
